Laboratory results as given in ChEMBL document CHEMBL1201862, “PubChem BioAssay data set” (2004).
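Five compound concentrations were applied to cells in 96-well plates for 48 hours; endpoints were derived by simple linear interpolation of the resulting dose-response curve. GI50 = concentration required for 50% inhibition of growth.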 The source made the active and inactive calls. No stated cut-off is given here; in the data, active = GI50 up to about 1.1 µM and inactive = higher. Positions of bridges follow the written chain, without caps; N, C: chain ends. Residues, ends and D or L forms follow the SMILES beside them.

Key:
Assay in all cases: NCI anticancer screen, dose series, 48 h
ACHN = system: ACHN
CCRF-CEM = system: CCRF-CEM
COLO 205 = system: COLO 205
HCT-15 = system: HCT-15
HL-60 = system: HL-60
HT-29 = system: HT-29
KM-20L2 = system: KM-20L2
NCI-H23 = system: NCI-H23
SF-268 = system: SF-268
SK-OV-3 = system: SK-OV-3
786-0 = system: 786-0
HCC 2998 = system: HCC 2998
KM12 = system: KM12
MOLT-4 = system: MOLT-4
RXF 393 = system: RXF 393
SR = system: SR
BT-549 = system: BT-549
NCI/ADR-RES = system: NCI/ADR-RES
PC-3 = system: PC-3
T47D = system: T47D

| SMILES | GI50 (ACHN) | GI50 (CCRF-CEM) | GI50 (COLO 205) | GI50 (HCT-15) | GI50 (HL-60) | GI50 (HT-29) | GI50 (KM-20L2) | GI50 (NCI-H23) | GI50 (SF-268) | GI50 (SK-OV-3) | GI50 (786-0) | GI50 (HCC 2998) | GI50 (KM12) | GI50 (MOLT-4) | GI50 (RXF 393) | GI50 (SR) | GI50 (BT-549) | GI50 (NCI/ADR-RES) | GI50 (PC-3) | GI50 (T47D) |
| --- | --- | --- | --- | --- | --- | --- | --- | --- | --- | --- | --- | --- | --- | --- | --- | --- | --- | --- | --- | --- |
| CCOc1ccc(/C(C=O)=C(\Cl)c2ccc(OC)c(OC)c2)cc1 | > 100 µM (inactive) | > 100 µM (inactive) | > 100 µM (inactive) | > 100 µM | 11.4 µM (inactive) | > 100 µM (inactive) | > 100 µM (inactive) | > 100 µM (inactive) | 42.6 µM (inactive) | > 100 µM (inactive) |  |  |  |  |  |  |  |  |  |  |
| O=C(c1ccccc1)[C@H]1Nc2ccc(Cl)cc2[C@H]2CCC[C@@H]12 | 13.3 µM (inactive) |  | 25.1 µM (inactive) | 25.1 µM |  | 21 µM (inactive) | 26.9 µM (inactive) | 23.9 µM (inactive) | 31.7 µM (inactive) |  | 44.9 µM (inactive) | 30.5 µM (inactive) | 49.1 µM (inactive) | 5.7 µM (inactive) | 14.8 µM (inactive) | 7.21 µM (inactive) |  |  |  |  |
| O=C(/C=N/c1ccccc1S)c1ccco1 |  | 3.14 µM (inactive) | 17.2 µM (inactive) | 7.66 µM | 4.17 µM (inactive) | 13.3 µM (inactive) | 14.5 µM (inactive) | 4.01 µM (inactive) | 18.7 µM (inactive) |  |  |  | 16.3 µM (inactive) | 5.32 µM (inactive) | 15.4 µM (inactive) |  |  |  |  |  |
| CCOC(=O)C(C)c1c(C(=O)c2ccc(C)nc2)c2ccccc2n1C (stereo not drawn) | > 100 µM (inactive) | > 100 µM (inactive) | > 100 µM (inactive) | > 100 µM | > 100 µM (inactive) | > 100 µM (inactive) | > 100 µM (inactive) | > 100 µM (inactive) | > 100 µM (inactive) | > 100 µM (inactive) | > 100 µM (inactive) | > 100 µM (inactive) | > 100 µM (inactive) | > 100 µM (inactive) | > 100 µM (inactive) |  |  |  |  |  |
| COc1cc2c3c(c1OC)/C(=N/OS(=O)(=O)c1ccc(C)cc1)CC3N(S(=O)(=O)c1ccc(C)cc1)CC2 (stereo not drawn) | > 100 µM (inactive) | > 100 µM (inactive) | > 100 µM (inactive) |  | > 100 µM (inactive) | > 100 µM (inactive) | > 100 µM (inactive) | > 100 µM (inactive) | > 100 µM (inactive) | > 100 µM (inactive) | > 100 µM (inactive) | > 100 µM (inactive) | > 100 µM (inactive) |  | 53.5 µM (inactive) |  |  |  |  |  |
| COc1cccc(NC(=O)CC(=O)N2N=C(N3c4ccccc4Sc4ccccc43)CC2c2ccccc2)c1 (stereo not drawn) | > 100 µM (inactive) |  | > 100 µM (inactive) | > 100 µM |  | > 100 µM (inactive) | > 100 µM (inactive) | > 100 µM (inactive) | > 100 µM (inactive) | > 100 µM (inactive) | > 100 µM (inactive) | > 100 µM (inactive) | > 100 µM (inactive) | > 100 µM (inactive) | > 100 µM (inactive) | > 100 µM (inactive) |  |  |  |  |
| O=C(O)C1=CCCc2ccc3ccccc3c21 | > 100 µM (inactive) | > 10 µM (inactive) | > 100 µM (inactive) | > 100 µM |  | > 100 µM (inactive) | > 100 µM (inactive) | > 100 µM (inactive) | > 100 µM (inactive) | > 100 µM (inactive) | > 100 µM (inactive) |  | > 100 µM (inactive) | > 100 µM (inactive) | > 100 µM (inactive) |  |  |  |  |  |
| CN(CCNC(=O)c1cn(C)c2c1ccc1cc(Cl)c(Cl)cc12)CCNC(=O)c1cn(C)c2c1ccc1cc(Cl)c(Cl)cc12 | 1.92 µM (inactive) | 1.61 µM (inactive) | 1.64 µM (inactive) | 1.74 µM | 1.32 µM (inactive) | 1.75 µM (inactive) |  | 5.22 µM (inactive) | 2.75 µM (inactive) | 2.03 µM (inactive) | 1.65 µM (inactive) | 1.69 µM (inactive) | 1.75 µM (inactive) | 0.5 µM (active) | 1.42 µM (inactive) | 0.56 µM (active) | 19.7 µM (inactive) | 2.26 µM (inactive) | 1.7 µM (inactive) | 1.93 µM (inactive) |
| CN(C)Cc1cc(/N=N/c2ccccc2)cc(CN(C)C)c1O | > 100 µM (inactive) | 32.3 µM (inactive) | 20.5 µM (inactive) | 56.6 µM | 21.9 µM (inactive) | 73.8 µM (inactive) |  | > 100 µM (inactive) | 73.5 µM (inactive) | > 100 µM (inactive) | 36.2 µM (inactive) | 79.1 µM (inactive) | 98.6 µM (inactive) | 45.8 µM (inactive) | 44.7 µM (inactive) | > 100 µM (inactive) | > 100 µM (inactive) | 43 µM (inactive) | > 100 µM (inactive) | > 100 µM (inactive) |
| NC(=O)/C(=N\NC(=O)c1cc2ccccc2cc1O)C1C(=O)N(c2ccccc2)N=C1N (stereo not drawn) | 29.9 µM (inactive) | 11.7 µM (inactive) | 28.8 µM (inactive) |  | 6 µM (inactive) | 44.2 µM (inactive) | 32.9 µM (inactive) | 20.3 µM (inactive) | 17.2 µM (inactive) |  | 40 µM (inactive) | 37.9 µM (inactive) | 35.6 µM (inactive) | 21.4 µM (inactive) | 29.3 µM (inactive) |  |  |  |  |  |
| CNC(=O)Nc1nc2cc([N+](=O)[O-])ccc2[nH]1 | > 100 µM (inactive) | 67.8 µM (inactive) | > 100 µM (inactive) | > 100 µM | 49 µM (inactive) | > 100 µM (inactive) |  | > 100 µM (inactive) | > 100 µM (inactive) | > 100 µM (inactive) | > 100 µM (inactive) | > 100 µM (inactive) | > 100 µM (inactive) | > 100 µM (inactive) | > 100 µM (inactive) | 47.1 µM (inactive) | 49.9 µM (inactive) | > 100 µM (inactive) | > 100 µM (inactive) | > 100 µM (inactive) |
| COC(=O)[C@@H]1C[C@@]23CCCN4CC[C@@]5(c6cccc(OC)c6N(C=O)[C@]15CC2)[C@@H]43 | > 100 µM (inactive) | > 100 µM (inactive) | > 100 µM (inactive) | > 100 µM | > 100 µM (inactive) | > 100 µM (inactive) |  | > 100 µM (inactive) | > 100 µM (inactive) | > 100 µM (inactive) | > 100 µM (inactive) | > 100 µM (inactive) | > 100 µM (inactive) | > 100 µM (inactive) | > 100 µM (inactive) | > 100 µM (inactive) | > 100 µM (inactive) | > 100 µM (inactive) | > 100 µM (inactive) | > 100 µM (inactive) |
| COC(=O)C1CCC(=O)NCCCCC(NC(=O)C(N)CC(=O)O)C(=O)N1 (stereo not drawn) (H-Asp-Lys-Glu-OMe; lactam 2-3; configuration not given here) | 41.2 µM (inactive) | 32.4 µM (inactive) | > 100 µM (inactive) | > 100 µM | 29.4 µM (inactive) | > 100 µM (inactive) |  | 92.5 µM (inactive) | > 100 µM (inactive) | > 100 µM (inactive) | 71.9 µM (inactive) | > 100 µM (inactive) | > 100 µM (inactive) | > 100 µM (inactive) | > 100 µM (inactive) | > 100 µM (inactive) | > 100 µM (inactive) | > 100 µM (inactive) | > 100 µM (inactive) | > 100 µM (inactive) |
| O=C(Nc1cc([N+](=O)[O-])cc([N+](=O)[O-])c1)OC1C2CCC1C1OC1C2 (stereo not drawn) | > 50 µM (inactive) | > 50 µM (inactive) | > 50 µM (inactive) | > 50 µM | 32.1 µM (inactive) |  | > 50 µM (inactive) | > 50 µM (inactive) | 33.7 µM (inactive) | > 50 µM (inactive) | > 50 µM (inactive) | > 50 µM (inactive) | 29.1 µM (inactive) | 34.5 µM (inactive) | > 50 µM (inactive) |  |  |  |  |  |
| O=C1c2cc3c(cc2CC1Br)CCC3 (stereo not drawn) | 3.8 µM (inactive) | 0.405 µM (active) | 1.97 µM (inactive) | 1.96 µM | 2.9 µM (inactive) | 2.36 µM (inactive) |  | 3 µM (inactive) | 4.41 µM (inactive) | 7.73 µM (inactive) | 1.8 µM (inactive) | 5.64 µM (inactive) | 7 µM (inactive) | 0.953 µM (active) | 1.83 µM (inactive) | 0.787 µM (active) | 1.96 µM (inactive) | 4.14 µM (inactive) | 3.28 µM (inactive) | 2.39 µM (inactive) |
| CCC(CO)Nc1nc(NCc2ccccc2)c2ncn(C(C)C)c2n1 (stereo not drawn) [(RS)-ROSCOVITINE] | 18.8 µM (inactive) | 22.6 µM (inactive) | 15 µM (inactive) | 17.9 µM | 17.5 µM (inactive) | 18.8 µM (inactive) |  | 13.6 µM (inactive) | 13.7 µM (inactive) | 57.8 µM (inactive) | 20.2 µM (inactive) | 15.3 µM (inactive) | 12.7 µM (inactive) | 28.5 µM (inactive) | 7.66 µM (inactive) | 7.1 µM (inactive) | 18.5 µM (inactive) | 15.4 µM (inactive) | 17.9 µM (inactive) | 32.8 µM (inactive) |
| Fc1ccc(N2C(=S)SC(=N\c3ccccc3)/C2=N/c2ccccc2)cc1 | > 74.5 µM (inactive) | 25.9 µM (inactive) | > 100 µM (inactive) | > 85.1 µM | 53.8 µM (inactive) | 27.1 µM (inactive) |  | > 71.9 µM (inactive) | > 100 µM (inactive) | > 100 µM (inactive) | > 100 µM (inactive) | > 100 µM (inactive) | 73.1 µM (inactive) | 5.86 µM (inactive) | > 100 µM (inactive) | 25.1 µM (inactive) | > 100 µM (inactive) | > 92.7 µM (inactive) | > 16.7 µM (inactive) | 25.5 µM (inactive) |
